According to patent US20030228607A1, “Screening method and modulators having an improved therapeutic profile” (priority 2002, published 2003):

T1: human LXRα ligand binding domain with co-repressors NCoR and SMRT (Homo sapiens, UniProt Q13133)
T1 construct: expressed in transfected cells; host or cells: CV-1 cells
T1 sequence (Q13133 164-447): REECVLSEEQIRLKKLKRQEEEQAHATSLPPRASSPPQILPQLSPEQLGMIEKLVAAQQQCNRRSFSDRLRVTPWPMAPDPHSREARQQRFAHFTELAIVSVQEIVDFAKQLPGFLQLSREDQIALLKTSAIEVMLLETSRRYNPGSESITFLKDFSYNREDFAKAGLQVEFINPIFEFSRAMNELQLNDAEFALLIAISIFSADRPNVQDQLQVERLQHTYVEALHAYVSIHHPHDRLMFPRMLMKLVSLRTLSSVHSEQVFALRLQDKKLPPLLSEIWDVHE

T2: human LXRβ ligand binding domain with co-repressors NCoR and SMRT (Homo sapiens, UniProt P55055, DUP175-175)
T2 construct: expressed in transfected cells; host or cells: CV-1 cells
T2 sequence (P55055 with tags, fused parts or gaps DUP175-175): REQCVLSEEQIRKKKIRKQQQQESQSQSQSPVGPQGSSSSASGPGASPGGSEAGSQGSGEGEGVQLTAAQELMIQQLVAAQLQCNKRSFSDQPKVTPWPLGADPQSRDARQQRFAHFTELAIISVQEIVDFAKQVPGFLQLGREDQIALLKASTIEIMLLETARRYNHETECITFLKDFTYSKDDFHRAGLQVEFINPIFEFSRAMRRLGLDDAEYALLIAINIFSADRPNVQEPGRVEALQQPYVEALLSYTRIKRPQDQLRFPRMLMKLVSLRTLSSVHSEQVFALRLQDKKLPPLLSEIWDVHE

T3: GAL4-human silencing mediator of retinoid and thyroid transcription (SMRT) receptor interacting domain 1 and … (yeast; human)
T3 construct: also called GAL4-SMRT ID1+ID2
T3 chain: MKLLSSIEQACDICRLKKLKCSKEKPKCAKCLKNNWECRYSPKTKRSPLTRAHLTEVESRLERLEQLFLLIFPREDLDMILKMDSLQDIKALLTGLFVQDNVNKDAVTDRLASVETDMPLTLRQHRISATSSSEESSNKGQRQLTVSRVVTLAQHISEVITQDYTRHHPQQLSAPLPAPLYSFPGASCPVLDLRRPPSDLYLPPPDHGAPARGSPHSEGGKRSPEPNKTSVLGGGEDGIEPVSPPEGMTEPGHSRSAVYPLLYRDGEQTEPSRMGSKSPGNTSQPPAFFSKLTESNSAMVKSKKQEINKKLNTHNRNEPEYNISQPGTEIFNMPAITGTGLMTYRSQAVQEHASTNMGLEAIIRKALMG

B1: VP16-LXR-LBD (VP16 activation domain fused to the ligand binding domain of human LXRβ, amino acids 155-461) (receptor)
chain: SRGRTRNNYGSTIEGLLDLPDDDDAPAEAGLVAPRMSFLSAGQRPRRLSTTAPITDVSLVDELRLDGEEVDMTPADALDDFDLEMLGDVESPSPGMTHDPVSYGALDVDDFEFEQMFTDALGIDDFGGREQCVLSEEQIRKKKIRKQQQESQSQSQSPVGPQGSSSSASGPGASPGGSEAGSQGSGEGEGVQLTAAQELMIQQLVAAQLQCNKRSFSDQPKVTPWPLGADPQSRDARQQRFAHFTELAIISVQEIVDFAKQVPGFLQLGREDQIALLKASTIEIMLLETARRYNHETECITFLKDFTYSKDDFHRAGLQVEFINPIFEFSRAMRRLGLDDAEYALLIAINIFSADRPNVQEPGRVEALQQPYVEALLSYTRIKRPQDQLRFPRMLMKLVSLRTLSSVHSEQVFALRLQDKKLPPLLSEIWDVHE
notes: also called VP16 fusion of LXRβ; VP16-LXRβ-LBD
B2: VP16-LXR-LBD (VP16 activation domain fused to the ligand binding domain of human LXRα, amino acids 164-447) (receptor)
chain: SRGRTRNNYGSTIEGLLDLPDDDDAPAEAGLVAPRMSFLSAGQRPRRLSTTAPITDVSLVDELRLDGEEVDMTPADALDDFDLEMLGDVESPSPGMTHDPVSYGALDVDDFEFEQMFTDALGIDDFGGREECVLSEEQIRLKKLKRQEEEQAHATSLPPRRSSPPQILPQLSPEQLGMIEKLVAAQQQCNRRSFSDRLRVTPWPMAPDPHSREARQQRFAHFTELAIVSVQEIVDFAKQLPGFLQLSREDQIALLKTSAIEVMLLETSRRYNPGSESITFLKDFSYNREDFAKAGLQVEFINPIFEFSRAMNELQLNDAEFALLIAISIFSADRPNVQDQLQVERLQHTYVEALHAYVSIHHPHDRLMFPRMLMKLVSLRTLSSVHSEQVFALRLQDKKLPPLLSEIWDVHE
notes: also called VP16 fusion of LXRα; VP16-LXRα-LBD

Legend:
[1] = tested on: ABCA1; experiment: ABCA1 mRNA in mouse embryonic fibroblasts in culture; type: cell-based; conditions: MEFs in culture, 1 μM, 18 hrs; LXR dependent
Procedure: (§1) FIG. 5. LXR mediated repression of ABCA1 is tissue specific. To measure the LXR dependent regulation of ABCA1 in different tissues wild type and LXRαβ−/− mice were dosed with 10 mg/kg T0901317 for 7 days by oral gavage. After 7 days the animals were sacrificed and intestinal mucosa, quadriceps, and livers were harvested. Mouse embryonic fibroblasts (MEFs) were isolated from embryos harvested at embryonic day 14. MEFs were plated in DMEM+10% FBS and treated with either vehicle or 1 μM T0901317 for 18 hrs. RNA was isolated and RT-PCR was used to quantitate the levels of ABCA1 and cyclophilin in FIG. 5A, intestinal mucosa, FIG. 5B, liver, FIG. 5C, MEFs and FIG. 5D, quadricep. […] RNA isolation and analysis of gene expression by quantitative RT-PCR. […] Quantitative PCR of reverse transcriptase reactions was carried out with 1.25 units Taq polymerase (Life Technologies), 1× Taq buffer, 3 mM MgCl2, 200 uM dNTPs, 400 nM target specific forward and reverse primers and 100 nM target specific fluorogenic probe. […] Levels of cyclophilin were measured in all in vivo samples and the results are presented as number of target transcripts per cyclophilin transcript. […] ABCA1 levels were also measured in isolated mouse embryonic fibroblasts treated with T091317 in culture. LXR agonist treatment increases expression of ABCA1 mRNA in all of the tissues analyzed, in an LXR dependent manner. […]

[2] = biological target: T1, human LXRα ligand binding domain with co-repressors NCoR and SMRT; experiment: GAL4 two-hybrid co-repressor interaction in CV-1 cells, LXRα; type: cell-based; conditions: 1 μM overnight, luciferase normalized to β-gal
Procedure: (§2) FIG. 6. […] Two-hybrid analysis was performed by transiently transfecting CV-1 cells with a Gal4-luciferase reporter, Gal4-fusions of the receptor interacting domains of NcoR and SMRT, VP16 fusion of the ligand binding domains of LXRα and LXRβ and a β-gal expression vector. Cells were transfected with FUGENE transfection reagent and incubated with vehicle or 1 μM T0901317 overnight. The cells were then lysed and analyzed for β-gal and luciferase activity. The data is presented as luciferase activity normalized to β-gal activity.
(§3) GAL4 two-hybrid experiments. CV-1 cells were transfected using FuGene6 (Roche Applied Science, Indianapolis, Ind.) per manufacturer's instructions in 96 well plates with a total of 65 ng of DNA per well, consisting of 20 ng β-gal reporter, 15 ng GAL4-UAS4xRE (SEQ. ID. No. 28), 15 ng VP16-LXR-LBD, and 15 ng GAL4-human silencing mediator of retinoid and thyroid transcription (SMRT) receptor interacting domain 1 and 2 (ID1+ID2) or human nuclear receptor corepressor 1 (NCoR) ID1+ID2.

[3] = biological target: T2, human LXRβ ligand binding domain with co-repressors NCoR and SMRT; experiment: GAL4 two-hybrid co-repressor interaction in CV-1 cells, LXRβ; type: cell-based; conditions: 1 μM overnight, luciferase normalized to β-gal
Procedure: as §2, §3

[4] = tested on: ABCA1; experiment: ABCA1 mRNA (RT-PCR) and protein (western blot) in peritoneal macrophage; type: cell-based, mouse; conditions: 1 μM, 18 hrs
Excerpt: FIG. 2. LXR dependent activation and repression of ABCA1. Thyoglycolate induced peritoneal macrophage were isolated from wild type and LXRαβ knockout mice. […] FIG. 2A. Following induction mRNA was isolated and RT-PCR was used to quantitate the levels of ABCA1 and the cyclophilin. ABCA1 levels were normalized to cyclophilin levels and the results are presented as fold induction above wild type macrophage treated with vehicle. FIG. 2B. For western blot analysis, whole cells extracts were isolated, run on an SDS-PAGE and probed with an antibody specific for ABCA1. RNA isolation and analysis of gene expression by quantitative RT-PCR. Total RNA from mouse tissues and cells was isolated using RNeasy kits (QIAGEN Inc.) according to the supplier's total RNA isolation procedure. Real time PCR was performed using a Perkin-Elmer/ABI 7700 Prism. […] Quantitative PCR of reverse transcriptase reactions was carried out with 1.25 units Taq polymerase (Life Technologies), 1× Taq buffer, 3 mM MgCl2, 200 uM dNTPs, 400 nM target specific forward and reverse primers and 100 nM target specific fluorogenic probe. […] Levels of cyclophilin were measured in all in vivo samples and the results are presented as number of target transcripts per cyclophilin transcript. […] RT-PCR was used to quantitate the levels of ABCA1 and the cyclophilin following induction of mRNA. […]

[5] = tested on: ABCA1; experiment: ABCA1 mRNA in tissues of mice dosed by oral gavage; type: in vivo, mouse; conditions: 10 mg/kg daily for 7 days, intestinal mucosa, liver, quadriceps, LXR dependent
Procedure: as §1

[6] = biological target: T3, GAL4-human silencing mediator of …; experiment: mammalian GAL4/VP16 two-hybrid, CV-1 cells, luciferase reporter

Molecule	expression of ABCA1 mRNA in mouse embryonic fibroblasts [1]	interaction of LXRα with co-repressors NCoR and SMRT [2]	interaction of LXRβ with co-repressors NCoR and SMRT [3]	ABCA1 mRNA levels ([4]; RT-PCR normalized to cyclophilin, LXR dependent (wild type vs LXRαβ-/-))	ABCA1 protein levels ([4]; western blot, LXR dependent)	expression of ABCA1 mRNA in tissues [5]	binding result [6]
O=S(=O)(c1ccccc1)N(CC(F)(F)F)c1ccc(C(O)(C(F)(F)F)C(F)(F)F)cc1 [T0901317, N-(2,2,2,-trifluoro-ethyl)-N-[4-(2,2,2-trifluoro-1-hydroxy-1-trifluoromethyl-ethyl)-phenyl]-benzenesulfonamide]	increases	inhibited	inhibited	increases	increases	increases	
B1							binds
B2							binds
